Test [1] addresses T1, human MERTK cytoplasmic domain (Homo sapiens, UniProt Q12866).
T1 construct: human MERTK cytoplasmic domain (Carna Biosciences 08-108); purchased Carna Biosciences 08-108
Description: biochemical. Particulars: 30 uM ATP; read-out: Assay 1a Mer IC50 30 uM ATP. Here is the method: Assay 1a—MERTK HTRF KinEASE-TK Assay
The enzymatic reaction was carried out for 30 min at room temperature. 10 μL TK Antibody-Cryptate/Streptavidin-XL665 (Cisbio 610SAXLG) was then added for 60 min, including EDTA containing detection buffer (Cisbio 62SDBRDF) to stop the reaction.

The target of test [2] is T2, human AXL cytoplasmic domain (Homo sapiens, UniProt P30530).
T2 construct: human AXL cytoplasmic domain (Thermo Fisher A31515); purchased Thermo Fisher A31515
T2 sequence (P30530 473-894 limits assumed): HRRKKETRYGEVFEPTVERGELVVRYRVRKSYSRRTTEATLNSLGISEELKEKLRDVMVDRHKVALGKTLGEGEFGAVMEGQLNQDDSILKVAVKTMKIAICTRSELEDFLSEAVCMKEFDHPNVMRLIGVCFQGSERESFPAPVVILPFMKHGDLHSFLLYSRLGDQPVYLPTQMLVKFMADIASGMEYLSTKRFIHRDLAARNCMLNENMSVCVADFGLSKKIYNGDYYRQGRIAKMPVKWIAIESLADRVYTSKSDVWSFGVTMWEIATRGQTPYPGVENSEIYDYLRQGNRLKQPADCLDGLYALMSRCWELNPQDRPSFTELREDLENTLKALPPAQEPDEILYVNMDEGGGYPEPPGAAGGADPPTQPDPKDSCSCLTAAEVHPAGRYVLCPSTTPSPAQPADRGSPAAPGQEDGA
Description: Assay 1b AXL HTRF KinEASE-TK assay. In kind it is biochemical. In outline: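 Recombinant cytoplasmic domain (5 nM) in kinase buffer with 5 mM MgCl2, 1 mM MnCl2, 1 mM DTT, 50 nM SEB plus test compounds; reaction 30 min at room temperature. EDTA-containing detection with TK antibody-cryptate/streptavidin-XL665 for 60 min; HTRF 665/620 ratio read. IC50 from 4-parameter logistic fit with variable slope.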
Background: In TR-FRET formats the signal depends on donor and acceptor labels being close together.

The target of test [3] is T3, recombinant human MERTK expressed in live cells (HEK 293, MERTK-Nanoluc fusion vector) (Homo sapiens, UniProt Q12866).
T3 construct: host or cells: HEK 293
T3 sequence (Q12866 21-999): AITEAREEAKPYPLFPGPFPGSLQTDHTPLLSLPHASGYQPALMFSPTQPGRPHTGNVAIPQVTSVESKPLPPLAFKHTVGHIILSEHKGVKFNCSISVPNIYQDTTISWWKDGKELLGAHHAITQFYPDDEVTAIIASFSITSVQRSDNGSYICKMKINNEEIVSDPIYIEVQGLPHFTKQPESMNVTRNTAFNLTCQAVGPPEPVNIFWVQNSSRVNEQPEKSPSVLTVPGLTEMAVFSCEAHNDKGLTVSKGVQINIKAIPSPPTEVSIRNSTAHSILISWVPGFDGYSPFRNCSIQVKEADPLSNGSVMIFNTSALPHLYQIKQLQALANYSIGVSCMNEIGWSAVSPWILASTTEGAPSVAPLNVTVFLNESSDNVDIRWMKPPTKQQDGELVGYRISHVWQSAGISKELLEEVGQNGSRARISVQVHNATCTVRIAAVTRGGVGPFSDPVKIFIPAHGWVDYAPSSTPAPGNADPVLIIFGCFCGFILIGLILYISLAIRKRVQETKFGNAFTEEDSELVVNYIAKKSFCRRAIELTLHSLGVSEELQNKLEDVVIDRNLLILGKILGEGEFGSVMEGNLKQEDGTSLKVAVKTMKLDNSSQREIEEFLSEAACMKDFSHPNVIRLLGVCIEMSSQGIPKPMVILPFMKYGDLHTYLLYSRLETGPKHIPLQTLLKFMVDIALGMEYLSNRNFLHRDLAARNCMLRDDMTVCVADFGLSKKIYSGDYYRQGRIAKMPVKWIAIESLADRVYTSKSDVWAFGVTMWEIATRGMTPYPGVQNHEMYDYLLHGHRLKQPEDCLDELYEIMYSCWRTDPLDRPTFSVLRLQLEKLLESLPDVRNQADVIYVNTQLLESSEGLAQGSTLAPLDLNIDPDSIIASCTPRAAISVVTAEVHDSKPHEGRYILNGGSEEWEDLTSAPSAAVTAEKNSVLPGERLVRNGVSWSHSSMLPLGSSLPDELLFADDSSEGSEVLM
Description: Assay 2 MERTK cellular target engagement (NanoBRET TE) assay. The following applies: HEK 293 cells, tracer K9, 2 h at 37° C.; read-out: Assay 2 Cell TE MER IC50. It is filed as cell-based.

Test [4] concerns the target T4, recombinant human AXL expressed in live cells (HEK, AXL-Nanoluc fusion vector) (Homo sapiens, UniProt P30530).
T4 construct: host or cells: HEK
T4 sequence (P30530 26-894): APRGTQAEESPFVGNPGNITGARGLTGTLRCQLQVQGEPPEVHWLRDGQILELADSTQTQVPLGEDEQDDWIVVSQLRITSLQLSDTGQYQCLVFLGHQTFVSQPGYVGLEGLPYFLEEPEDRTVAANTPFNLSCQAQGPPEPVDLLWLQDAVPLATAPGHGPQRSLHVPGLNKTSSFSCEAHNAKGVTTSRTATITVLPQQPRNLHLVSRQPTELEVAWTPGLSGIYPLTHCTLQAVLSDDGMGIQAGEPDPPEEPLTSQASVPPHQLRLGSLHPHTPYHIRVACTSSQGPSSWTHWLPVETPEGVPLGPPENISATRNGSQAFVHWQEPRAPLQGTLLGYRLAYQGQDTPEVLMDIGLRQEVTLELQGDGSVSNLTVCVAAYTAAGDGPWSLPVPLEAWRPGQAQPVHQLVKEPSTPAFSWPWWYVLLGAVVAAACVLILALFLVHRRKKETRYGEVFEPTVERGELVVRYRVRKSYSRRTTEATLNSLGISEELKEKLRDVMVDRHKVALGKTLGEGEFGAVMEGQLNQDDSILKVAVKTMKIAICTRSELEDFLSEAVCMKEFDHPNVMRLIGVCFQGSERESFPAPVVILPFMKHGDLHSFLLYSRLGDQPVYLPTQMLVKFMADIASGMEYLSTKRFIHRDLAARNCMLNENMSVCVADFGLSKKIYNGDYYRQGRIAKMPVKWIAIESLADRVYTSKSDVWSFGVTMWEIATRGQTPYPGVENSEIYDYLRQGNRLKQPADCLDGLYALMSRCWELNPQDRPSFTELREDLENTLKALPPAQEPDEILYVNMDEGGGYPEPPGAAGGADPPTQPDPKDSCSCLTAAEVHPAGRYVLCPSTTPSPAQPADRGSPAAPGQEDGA
The experiment in a line: Assay 3 AXL cellular target engagement (NanoBRET TE) assay. It is filed as cell-based. Here is the method: Assay 3—AXL Cellular Target Engagement (TE) Assay
Compound affinities for recombinant human AXL expressed in live cells were assessed via the Promega NanoBRET TE assay technology. Human Embryonic Kidney (HEK) cells were transiently transfected with the AXL-Nanoluc fusion vector (Promega Cat NV1071) using Fugene HD reagent (Promega E2311). […] Incubations were conducted for 2 h at 37° C., after which 20 μl NanoGlo substrate/inhibitor mix (Promega N2161) was added to each well for 2-3 min. The plate was then read on a BMG Pherastar FSX using a NanoBRET filter to record donor emission at 450 nm and acceptor fluorophore emission at 610 nm. From this the BRET ratio (acceptor 610 nm/donor 450 nm) for each data point was calculated.
In general terms: Bioluminescence resonance energy transfer reports proximity on the nanometre scale.

The mark [5] stands for this setting: HEK cells, tracer K5, 2 h at 37° C., read-out: Assay 3 Cell TE Axl IC50.

SMILES strings stand for the structures. Like-named read-outs stand apart in the source and are kept apart here.

The IC50 is the concentration that inhibits the measured activity by half.

`O=C(Nc1ccc(Oc2ccnc3cnc(N4CCNCC4)cc23)cc1)c1cccn(-c2ccccc2)c1=O` [Example 12, 2-Oxo-1-phenyl-N-[4-[(6-piperazin-1-yl-1,7-naphthyridin-4-yl)oxy]phenyl]pyridine-3-carboxamide]: the IC50 stood at 11 nM in test [1], 54 nM in test [2], 80.4 nM in test [3] and 114 nM in test [4] (setting [5]).

With `CN1CCC(NC(=O)c2cc3c(Oc4ccc(NC(=O)c5cccn(-c6ccccc6)c5=O)nc4)ccnc3cn2)CC1` [Example 28.2, N-(1-methyl-4-piperidyl)-4-[[6-[(2-oxo-1-phenyl-pyridine-3-carbonyl)amino]-3-pyridyl]oxy]-1,7-naphthyridine-6-carboxamide], the half-inhibitory concentration (IC50) in test [1] was found to be 31 nM; in test [2] it was 60 nM; in test [3] it was 95.6 nM; in test [4], 83.3 nM.

Regarding `O=C(Nc1ccc(Oc2ccnc3cnc(N4CCNCC4)cc23)c(F)c1)c1cccn(-c2ccccc2)c1=O` [Example 31, N-[3-fluoro-4-[(6-piperazin-1-yl-1,7-naphthyridin-4-yl)oxy]phenyl]-2-oxo-1-phenyl-pyridine-3-carboxamide], the 50% inhibitory concentration (IC50) in test [1] was determined as 6 nM; in test [2], 12 nM; in test [3] it was 26.1 nM; in test [4], 34.9 nM.

As to `O=C(Nc1ccc(Oc2ccnc3cnc(N4CCNCC4)cc23)cn1)c1cccn(-c2ccccc2)c1=O` [Example 32, 2-oxo-1-phenyl-N-[5-[(6-piperazin-1-yl-1,7-naphthyridin-4-yl)oxy]-2-pyridyl]pyridine-3-carboxamide], the IC50 is 17 nM in test [1], 310 nM in test [2], 80.8 nM in test [3] and 127 nM in test [4] (setting [5]).

For the origin of these results see patent US20230203029A1 (priority 2020, published 2023).
